Experimental data: patent US10913712B2, “Tetracycline compounds” (Tetraphase Pharmaceuticals, Inc., priority 2012, dated 2021)
≈ marks a conversion by molar mass, not a printed value.

Tested on: Burkholderia cenocepacia BC240 (cystic fibrosis isolate, MDR)
Experiment: MIC assay
Type: cell-based
Settings: Table 6; control compounds

SMILES | MIC BC 240
CN(C)c1cc(NC(=O)CNC(C)(C)C)c(O)c2c1C[C@H]1C[C@H]3[C@H](N(C)C)C(O)=C(C(N)=O)C(=O)[C@@]3(O)C(O)=C1C2=O [Tigecycline, tigecycline] | 16 µg/mL (≈ 27.3 µM)
CN(C)[C@@H]1C(O)=C(C(N)=O)C(=O)[C@@]2(O)C(O)=C3C(=O)c4c(O)cccc4C[C@H]3C[C@@H]12 [Sancycline, sancycline] | 4 µg/mL (≈ 9.65 µM)
